In US5578620A, “Thiazolidine and oxazolidine derivatives, their preparation and their medical use” (Sankyo Company, Limited, priority 1994, dated 1996):

Tests used:
[1] = tested on: blood glucose level (BGL); test: Hypoglycemic activity (blood glucose lowering rate) in hyperglycemic KK mice; format: in vivo, male mice of the KK strain; details: Mus musculus, oral, 18 hours
Method: The test animals used were hyperglycemic male mice of the KK strain, each having a body weight more than 40 g. Each animal was orally administered a test compound in the amount shown in the following Table 8 and then allowed to feed freely for 18 hours. At the end of this time, blood was collected from the tail veins without anesthesia. The blood glucose level (BGL) was determined by means of a glucose analyzer (GL-101, manufactured by Mitsubishi Kasei Co. or Glucoroder manufactured by Shino Test Co.).
The blood glucose lowering rate was calculated by the following equation:
Blood glucose lowering rate (%)=
BGLs is the BGL in the group administered a solvent only, but no active compound; and
BGLt is the BGL in the group administered a test compound.
The results are shown in the following Table 8, in which each compound of the present invention is identified by the number of one of the following Examples in which its preparation is illustrated.

[2] = target: T1, Bovine lens aldose reductase (Bos taurus, UniProt P16116); test: Inhibition of Aldose reductase; format: biochemical; details: for inhibition at 5 µg/mL: read-out: Inhibition at 5 μg/ml
T1 construct: Bovine lens aldose reductase was separated and partially purified; from tissue; host or cells: bovine lens
Method: Bovine lens aldose reductase was separated and partially purified by the method of S. Hyman and J. H. Kinoshita [J. Biol. Chem., 240, 877 (1965)] and K. Inagaki, I. Miwa and J. Okuda [Arch. Biochem. Biophys., 316, 337 (1982)], and its activity was determined photometrically by the method of Varma et al. [Biochem. Pharmac., 25, 2505 (1976)]. […]

[3] = Toxicity, oral administration for 2 weeks; format: in vivo, male F344 rats; details: 50 mg/kg; for mortality rate: male F344 rats, oral, 2 weeks
Method: The toxicity of the compounds of the present invention was tested on male F344 rats, divided into groups of 5. The test compound was adminstered orally to each test animal at a dose of 50 mg/kg of body weight for 2 weeks. The test compounds used were those of Examples 20, 45 (polar, less polar) and 47 (polar).

IC50 [2] [µM] | inhibition at 5 µg/mL [2] [%] | SMILES | inhibition in vivo at 1 mg/kg [1] [%] | also measured
3.91 | 67.8 | COc1ccc(OCC2CN(C(C)COc3ccc(CC4SC(=O)NC4=O)cc3)C(=O)O2)cc1 (single isomer, unassigned) [31 (less polar), 5-{4-[2-(5-4'-Methoxyphenoxymethyl-2-oxooxazolidin-3-yl)propoxy]benzyl}thiazolidine-2,4-dione] | 21.6 | –
– | – | CC(COc1ccc(CC2SC(=O)NC2=O)cc1)N1CC(COc2cccc(Cl)c2)OC1=S (single isomer, unassigned) [Example 45 (less polar), 5-{4-[2-(5-3'-Chlorophenoxymethyl-2-thioxooxazolidin-3-yl)propoxy]benzyl}thiazolidine-2,4-dione] | 27.2 | mortality rate [3]: zero; abnormalities observed during 2 successive weeks ([3]; rat, in vivo, po): no abnormalities which could be attributed to the test coumpounds; hematological examinations (red blood cell counts) ([3]; rat, in vivo, po): slighly decrease in red blood cell counts
– | – | CCCC(COc1ccc(CC2SC(=O)NC2=O)cc1)N1CC(COc2cccc(Cl)c2)OC1=O (single isomer, unassigned) [Example 50 (less polar), 5-{4-[2-(5-3'-Chlorophenoxymethyl-2-oxooxazolidin-3-yl)pentyloxy]benzyl}thiazolidine-2,4-dione] | 17.5 | –
– | – | CC(COc1ccc(CC2SC(=O)NC2=O)cc1)N1CC(COc2ccc(-c3ccccc3)cc2)OC1=S (centres unmarked) [36 (polar), 5-{4-[2-(5-4'-Phenylphenoxymethyl-2-thioxooxazolidin-3-yl)propoxy]benzyl}thiazolidine-2,4-dione] | 13.7 | –
– | – | CC(COc1ccc(CC2SC(=O)NC2=O)cc1)N1CC(COc2cccc(Cl)c2)OC1=S (centres unmarked) [45 (polar), 5-{4-[2-(5-3'-Chlorophenoxymethyl-2-thioxooxazolidin-3-yl)propoxy]benzyl}thiazolidine-2,4-dione] | 23.9 | mortality rate [3]: zero; abnormalities observed during 2 successive weeks ([3]; rat, in vivo, po): no abnormalities which could be attributed to the test coumpounds
– | – | CC(C)C(COc1ccc(CC2SC(=O)NC2=O)cc1)N1CC(COc2cccc(Cl)c2)OC1=O (centres unmarked) [51 (polar), 5-{4-[2-(5-3'-Chlorophenoxymethyl-2-oxooxazolidin-3-yl)-3-methylbutoxy]benzyl}thiazolidine-2,4-dione] | 20.8 | –
0.224 | 89.6 | CC(COc1ccc(CC2SC(=O)NC2=O)cc1)N1CC(COc2cccc(Cl)c2)OC1=O (centres unmarked) [Example 1, 5-{4-[2-(5-3'-Chlorophenoxymethyl-2-oxooxazolidin-3-yl)propoxy]benzyl}thiazolidine-2,4-dione] | 28.5 | –
– | – | O=C1NC(=O)C(Cc2ccc(OCCN3CC(COc4cccc(Cl)c4)OC3=O)cc2)S1 (centres unmarked) [Example 6, 5-{4-[2-(5-3'-Chlorophenoxymethyl-2-oxooxazolidin-3-yl)ethoxy]benzyl}thiazolidine-2,4-dione] | 19.2 | –
– | – | CC(COc1ccc(CC2SC(=O)NC2=O)cc1)NCC(O)Cc1ccccc1 (centres unmarked) [Example 7, 5-{4-[2-(3-Phenyl-2-hydroxypropylamino)propoxy]benzyl}thiazolidine-2,4-dione] | 36.3 | –
– | – | C[C@H](COc1ccc(CC2SC(=O)NC2=O)cc1)N1C[C@@H](COc2cccc(Cl)c2)OC1=O (stereo partly drawn) [Example 11, 5-[4-{2(R)-[5(S)-(3-Chlorophenoxymethyl)-2-oxooxazolidin-3-yl]propoxy}benzyl]thiazolidine-2,4-dione] | 24.3 | –
– | – | C[C@@H](COc1ccc(CC2SC(=O)NC2=O)cc1)N1C[C@@H](COc2cccc(Cl)c2)OC1=O (stereo partly drawn) [Example 13, 5-[4-{2(S)-[5(S)-(3-Chlorophenoxymethyl)-2-oxooxazolidin-3-yl]propoxy}benzyl]thiazolidine-2,4-dione] | 29.9 | –
– | – | CC(COc1ccc(CC2SC(=O)NC2=O)cc1)NCC(O)COCc1ccccc1 (centres unmarked) [Example 15, 5-{4-[2-(3-Benzyloxy-2-hydroxypropylamino)propoxy]benzyl}thiazolidine-2,4-dione] | 19.1 | –
– | – | CC(COc1ccc(CC2SC(=O)NC2=O)cc1)NCC(O)COCCc1ccccc1 (centres unmarked) [Example 18, 5-{4-[2'-(3-2'-phenylethoxy-2-hydroxypropylamino)propoxy]benzyl}thiozolidine-2,4-dione] | 10.5 | –
3.61 | 70.1 | CC(COc1ccc(CC2SC(=O)NC2=O)cc1)N1CC(COCc2ccccc2)OC1=O (centres unmarked) [Example 22, 5-{4-[2-(5-Benzyloxymethyl-2-oxooxazolidin-3-yl)propoxy]benzyl}thiazolidine-2,4-dione] | 14.3 | –
– | – | CC(COc1ccc(CC2SC(=O)NC2=O)cc1)N1CC(COCCCCCCCCc2ccccc2)OC1=O (centres unmarked) [Example 28, 5-{4-[2-(5-8'-Phenyloctyloxymethyl-2-oxooxazolidin-3-yl)propoxy]benzyl}thiazolidine-2,4-dione] | 13.6 | –
– | – | CC(COc1ccc(CC2SC(=O)NC2=O)cc1)N1CC(COCCCCCCCc2ccccc2)OC1=O (centres unmarked) [Example 29, 5-{4-[2-(5-7'-Phenylheptyloxymethyl-2-oxooxazolidin-3-yl)propoxy]benzyl}thiazolidine-2,4-dione] | 18.1 | –
– | – | CC(COc1ccc(CC2SC(=O)NC2=O)cc1)N1CC(COc2ccc(-c3ccccc3)cc2)OC1=O (centres unmarked) [Example 35, 5-{4-[2-(5-4'-Phenylphenoxymethyl-2-oxooxazolidin-3-yl)propoxy]benzyl}thiazolidine-2,4-dione] | 13.5 | –
6.68 | 57.4 | CC(COc1ccc(CC2SC(=O)NC2=O)cc1)NCC(O)COCc1cccc(Cl)c1 (centres unmarked) [Example 41, 5-{4-[2-(3-3'-Chlorobenzyloxy-2-hydroxypropylamino)propoxy]benzyl}thiazolidine-2,4-dione] | 18.2 | –

SMILES | IC50 [2] [µM] | inhibition at 5 µg/mL [2] [%] | inhibition in vivo at 1 mg/kg [1] [%] | also measured
CCC(COc1ccc(CC2SC(=O)NC2=O)cc1)N1CC(COc2cccc(Cl)c2)OC1=O (centres unmarked) [47 (polar), 5-{4-[2-(5-3'-Chlorophenoxymethyl-2-oxooxazolidin-3-yl)butoxy]benzyl}thiazolidine-2,4-dione] | 0.455 | 86.6 | 34.7 | mortality rate [3]: zero; abnormalities observed during 2 successive weeks ([3]; rat, in vivo, po): no abnormalities which could be attributed to the test coumpounds
CC(COc1ccc(CC2SC(=O)NC2=O)cc1)NCC(O)COCCCCc1ccccc1 (centres unmarked) [Example 19, 5-{4-[2-(3-4'-Phenylbutoxy-2-hydroxypropylamino)propoxy]benzyl}thiazolidine-2,4-dione] | 8.01 | 56.1 | 15.8 | –
CC(COc1ccc(CC2SC(=O)NC2=O)cc1)NCC(O)COCCCCCCc1ccccc1 (centres unmarked) [Example 20, 5-{4-[2-(3-6'-Phenylhexyloxy-2-hydroxypropylamino)propoxy]benzyl}thiazolidine-2,4-dione] | 3.5 | 69.1 | 37.9 | mortality rate [3]: zero; abnormalities observed during 2 successive weeks ([3]; rat, in vivo, po): no abnormalities which could be attributed to the test coumpounds
